Measured values from patent US7820645B2, “Crystalline forms” (AstraZeneca AB, priority 2006, dated 2010).
≈ marks a conversion by molar mass, not a printed value. Where two headings read alike, the source gives them in different places.

How the values were obtained:
[1] = Solubility in organic solvents (gravimetric, saturated solution from one-day slurry); format: physicochemical; conditions: for solubility at 1 day: organic solvent or mixture, thermodynamic from solid, 22° C.
Method: An excess of Compound A from Example 3 above was slurried in ethyl acetate for one day. A proportion of the saturated solution was then withdrawn through a 0.5 micrometer filter to a pre-weighted E-flask. The E-flask was weighed and then opened & evaporated in air, and then dried in vacuum at 40° C. until the weight was constant. The weight of the solution, the weight of dry substance, the weight of solvent and the volume of solvent were determined (using the density of ethyl acetate at 22° C.=0.90 g/ml).
(§1) An excess of Compound B from Example 2 above was slurried in isopropanol for one day in a closed vessel. A proportion of the saturated solution was then withdrawn through a 0.5 micrometer filter to a pre-weighted E-flask. The E-flask was weighed and then opened & evaporated in air, and then dried in vacuum at 70° C. until the weight was constant. The weight of the solution, the weight of dry substance, the weight of solvent and the volume of solvent were determined (using the density of isopropanol at 22° C.=0.79 g/ml).
as §1, with “Compound A” for “Compound B”, “Example 6” for “Example 2”
(§2) An excess of Compound A from Example 6 above was slurried in ethanol for one day in a closed vessel. A proportion of the saturated solution was then withdrawn through a 0.5 micrometer filter to a pre-weighed E-flask. The E-flask was weighed and then opened and evaporated in air, and then dried in vacuum at 40-50° C. until the weight was constant. The weight of the solution, the weight of dry substance, the weight of solvent and the volume of solvent were determined (using the density of ethanol at 22° C.=0.79 g/ml).
as §2, with “in methanol” for “in ethanol”, “a pre-weighted” for “a pre-weighed”, “opened &” for “opened and”, “of methanol” for “of ethanol”
as §1, with “Compound A” for “Compound B”, “Example 6” for “Example 2”, “in acetone” for “in isopropanol”, “of acetone” for “of isopropanol”, “22° C.=0.82” for “22° C.=0.79”

[2] = target: T1, thrombin (Homo sapiens, UniProt P00734); conditions: Test A of WO 02/44145; disclosed in Example 46 of WO 02/44145; cited from earlier work
[3] = target: T1, thrombin; conditions: Test D of WO 02/44145; disclosed in Example 47 of WO 02/44145; cited from earlier work
[4] = isopropanol, Compound B from Example 2 or Compound A anhydrate from Example 6
[5] = isopropanol, Compound B from Example 2 or Compound A anhydrate from Example 6, read-out: solubility (mg per ml isopropanol)

What does the source list for CO/N=C(\N)c1ccc(CNC(=O)[C@@H]2CCN2C(=O)[C@H](O)c2cc(Cl)cc(OC(F)F)c2)cc1 [Compound A, Ph(3-Cl)(5-OCHF2)—(R)CH(OH)C(O)-Aze-Pab(OMe)]?
solubility as weight % ([1]; acetone, Compound A from Example 6): 33 % w/w; solubility as weight % ([1]; ethanol, Compound A from Example 6): 10 % w/w; solubility as weight % ([1]; ethyl acetate, Compound A from Example 3): 4 % w/w; solubility as weight % [1, 4]: 2 % w/w; solubility as weight % ([1]; methanol, Compound A from Example 6): 45 % w/w; solubility at 1 day ([1]; acetone, Compound A from Example 6, read-out: solubility (mg per ml acetone)): 398 mg/mL (≈ 801 mM); solubility at 1 day ([1]; ethanol, Compound A from Example 6, read-out: solubility (mg per ml ethanol)): 87 mg/mL (≈ 175 mM); solubility at 1 day ([1]; ethyl acetate, Compound A from Example 3, read-out: solubility (mg per ml ethyl acetate)): 36 mg/mL (≈ 72.4 mM); solubility at 1 day [1, 5]: 15 mg/mL (≈ 30.2 mM); solubility at 1 day ([1]; methanol, Compound A from Example 6, read-out: solubility (mg per ml methanol)): 655 mg/mL (≈ 1320 mM)

With N/C(=N\O)c1ccc(CNC(=O)[C@@H]2CCN2C(=O)[C@H](O)c2cc(Cl)cc(OC(F)F)c2)cc1 [Compound B, Ph(3-Cl)(5-OCHF2)—(R)CH(OH)C(O)-Aze-Pab(OH)] as the compound, how does the “solubility as weight %” value [1, 4] read?
The value was 0.4 % w/w.

And the solubility at 1 day [1, 5]?
Its solubility at 1 day is 3 mg/mL (≈ 6.21 mM).

With N=C(N)c1ccc(CNC(=O)[C@@H]2CCN2C(=O)[C@H](O)c2cc(Cl)cc(OC(F)F)c2)cc1 [Compound C] as the compound, how does the IC50 [2] read?
The IC50 was under 0.02 µM.

What about the IC50 [3] of the same compound?
The IC50 was under 1 µM.
